Data: ChEMBL document CHEMBL1149234, “Exploration of the P1 SAR of aldehyde cathepsin K inhibitors” (Bioorg Med Chem Lett, 2004)

Each molecule was assayed against T1, Cathepsin K (Homo sapiens, UniProt P43235) (assay: Inhibitory activity against recombinant human cathepsin K).
T1 sequence (P43235 whole entry): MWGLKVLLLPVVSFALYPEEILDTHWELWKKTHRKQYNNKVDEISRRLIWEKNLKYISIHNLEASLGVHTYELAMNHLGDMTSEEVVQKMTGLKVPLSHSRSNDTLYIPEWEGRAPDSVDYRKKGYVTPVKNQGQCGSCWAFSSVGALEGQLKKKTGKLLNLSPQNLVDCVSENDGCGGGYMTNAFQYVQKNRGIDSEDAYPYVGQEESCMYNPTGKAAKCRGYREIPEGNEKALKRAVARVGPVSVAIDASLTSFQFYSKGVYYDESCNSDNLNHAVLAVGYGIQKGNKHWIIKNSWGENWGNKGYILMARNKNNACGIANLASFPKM

In order of falling IC50:
1. CC(C)(C)OC(=O)N[C@H](C=O)C(C)(C)C  52 µM
2. CC(C)(C)OC(=O)NCC=O  5.8 µM
3. COCC[C@@H](C=O)NC(=O)OC(C)(C)C  0.68 µM
4. CCOC[C@@H](C=O)NC(=O)OC(C)(C)C  0.66 µM
5. CC#CC[C@@H](C=O)NC(=O)OC(C)(C)C  0.41 µM
6. COC(=O)NC[C@@H](C=O)NC(=O)OC(C)(C)C  0.37 µM
7. CCC(C)[C@@H](C=O)NC(=O)OC(C)(C)C (stereo partly drawn)  0.25 µM
8. CC(C)(C)C[C@@H](C=O)NC(=O)OC(C)(C)C  0.25 µM
9. C[C@@H](C=O)NC(=O)OC(C)(C)C  0.2 µM
10. CC(C)[C@@H](C=O)NC(=O)OC(C)(C)C  0.16 µM
11. C/C=C/C[C@@H](C=O)NC(=O)OC(C)(C)C  0.15 µM
12. CCC(C)[C@H](C=O)NC(=O)OC(C)(C)C (stereo partly drawn)  0.13 µM
13. CCCCC[C@@H](C=O)NC(=O)OC(C)(C)C  0.11 µM
14. CC(C)(C)OC(=O)N[C@H](C=O)Cc1ccccc1  0.11 µM
15. CN(CC[C@@H](C=O)NC(=O)OC(C)(C)C)C(=O)C(F)(F)F  0.098 µM
16. CC(C)(C)OC(=O)N[C@H](C=O)CCCC(F)(F)F  0.087 µM
17. CCSC[C@@H](C=O)NC(=O)OC(C)(C)C  0.083 µM
18. C=C(C)C[C@@H](C=O)NC(=O)OC(C)(C)C  0.079 µM
19. CSCC[C@@H](C=O)NC(=O)OC(C)(C)C  0.078 µM
20. CC[C@@H](C=O)NC(=O)OC(C)(C)C  0.058 µM
21. CC(C)(C)OC(=O)N[C@H](C=O)c1ccccc1  0.051 µM
22. CCCC[C@@H](C=O)NC(=O)OC(C)(C)C  0.051 µM
23. CN(CCCC[C@@H](C=O)NC(=O)OC(C)(C)C)C(=O)C(F)(F)F  0.05 µM
24. CC(C)(C)OC(=O)N[C@H](C=O)CCCCNC(=O)C(F)(F)F  0.041 µM
25. C/C=C\C[C@@H](C=O)NC(=O)OC(C)(C)C  0.041 µM
26. CC(C)(C)OC(=O)N[C@H](C=O)CSCc1ccccc1  0.04 µM
27. CCC[C@@H](C=O)NC(=O)OC(C)(C)C  0.038 µM
28. CC(C)(C)OC(=O)N[C@H](C=O)COCc1ccccc1  0.038 µM
29. CC(C)(C)OC(=O)N[C@H](C=O)CC1CCCCC1  0.036 µM
30. CC(C)C[C@@H](C=O)NC(=O)OC(C)(C)C  0.031 µM
31. CC(C)(C)OC(=O)N[C@H](C=O)CCc1ccccc1  0.03 µM
32. CN(CCC[C@@H](C=O)NC(=O)OC(C)(C)C)C(=O)C(F)(F)F  0.029 µM
33. CC(C)(C)OC(=O)N[C@H](C=O)CCC1CCCCC1  0.026 µM
34. CCCCCC[C@@H](C=O)NC(=O)OC(C)(C)C  0.023 µM
35. CC(C)(C)OC(=O)N[C@H](C=O)CCCC1CCCCC1  0.016 µM
36. CC(C)(C)OC(=O)N[C@H](C=O)CCCc1ccccc1  0.015 µM
37. COC(=O)NCCCC[C@@H](C=O)NC(=O)OC(C)(C)C  0.015 µM
38. CCCC[C@@H](C=O)NC(=O)[C@H](CC(C)C)NC(=O)OCc1ccccc1 [CALPEPTIN]  0.00011 µM
